O=[N+]([O-])c1cc([N+](=O)[O-])c(Cl)c(Cl)c1Cl
solubility (mole fraction)
Conditions	278.15 K	283.15 K	288.15 K	293.15 K	298.15 K	303.15 K	308.15 K	313.15 K	318.15 K	323.15 K
in 1,2-dichloroethane	0.06	0.0736	0.0895	0.108	0.13	0.155	0.185	0.219	0.258	0.301
in DMF	0.194	0.211	0.23	0.251	0.274	0.298	0.324	0.352	0.384	0.419
in DMSO	–	–	–	0.238	0.262	0.287	0.315	0.345	0.378	0.412
in NMP	0.278	0.291	0.305	0.321	0.338	0.357	0.377	0.4	0.425	0.454
in acetone	0.109	0.124	0.141	0.16	0.181	0.204	0.229	0.257	0.289	0.323
in acetonitrile	0.0401	0.0511	0.0644	0.0806	0.1	0.123	0.15	0.183	0.22	0.265
in chloroform	0.0536	0.066	0.0807	0.0982	0.118	0.141	0.169	0.201	0.237	0.279
in dichloromethane	0.0689	0.0822	0.0975	0.116	0.135	–	–	–	–	–

— BigSolDB 2.1
